Results as given in patent US20030050283A1, “Composition for the treatment and/or prevention of macular degeneration, method for its manufacture, and its use for treating the eye” (priority 2001, published 2003).
Read-outs that look alike come from different tables or passages of the source.

Key:
COX = molecular target: T1, COX (Rattus norvegicus, UniProt P00406+P05503+P05505); test: Binding of [3H]-A2E to COX by co-precipitation; conditions: 20 min
T1 construct: Cytochrome c oxidase was purified from rat liver mitochondria of female Wistar rats; from tissue; host or cells: rat liver mitochondria (female Wistar rats)
Experimental: (§1) The quantity of protein used in each case was approximately 50 pmol. After 20 minutes of incubation in the darkness or under radiation using light, 10% (final concentration) of trichloroacetic acid was added, the precipitate was collected on Millipore filters, and the dissolved filter was examined for radioactivity.
To investigate the hypothesis of whether a molecular interaction occurs between COX and A2E, an acid precipitation of COX was performed after the addition of A2E and radiation with light, and/or after A2E exposure in darkness (see Table IV).
(§2) [^3H]-A2E was added to solubilized COX or other proteins. After 20 minutes of incubation in darkness (setup was wrapped in aluminum foil) or under exposure to light, 10% trichloroacetic acid (final concentration) was added, the precipitate was collected on Millipore filters, and the filters, which were dissolved in solvent, were subsequently examined for radioactivity. CL=cardiolipin (diphosphatidylglycerol, DPC); Cyt. c=cytochrome c; BSA=bovine serum albumin.

MCF-7 cells = test: A2E-induced apoptosis of MCF-7 cells in culture; type: cell-based
Source text: These advantageous properties predestine the phospholipids according to the present invention for use as a medication for treating pathological conditions of the retina, particular for treating AMD and macular degeneration.

[1] = molecular target: T2, solubilized cytochrome c oxidase (COX) (Rattus norvegicus, UniProt P00406+P05503+P05505); test: Activity of solubilized cytochrome c oxidase by oxygen consumption (Clarke electrode); type: biochemical; conditions: for IC50: read-out: IC50 (μM) in relation to COX
T2 construct: Cytochrome c oxidase was purified from rat liver mitochondria of female Wistar rats; from tissue; host or cells: rat liver mitochondria (female Wistar rats)
Experimental: Cytochrome c oxidase was purified from rat liver mitochondria of female Wistar rats as described by Frei et al. (Frei, B., Winterhalter, K. H., and Richter, C. (1985) J. Biol. Chem. 260, 7394-7401). The homogenization medium contained 210 mM mannitol, 70 mM saccharose, 10 mM tris-HCl (pH 7.4), 0.1 mM EDTA, and 0.5 mg/mL BSA. The heart mitochondria were purified using a similar method, a polytron homogenizer being used. The cytochrome c oxidase was purified according to the method described by Adez and Cascarano (Adez, I. Z., and Cascarano, J. (1977) J. Bioenerg. Biomemb. 9, 237-253). Cytochrome c oxidase solubilized using Triton X-100 was reconstituted in variously composed phospholipid vesicles of differing dimensions, a modified cholate dialysis method being used. (Niggli, V., Siegel, E., and Carafoli, E. (1982) J. Biol. Chem. 257, 2350-2356). 1 mL of a phospholipid suspension (10 mg/mL in 50 mM KCl, 10 mM HEPES-KOH (pH 7.0), 0.1 mM K^+-EDTA; buffer A) was solubilized in 0.2 mL of a 400 mM cholate solution. The purified cytochrome c oxidase (40 μg) was added to 0.4 mL of the cholate-phospholipid mixture. After an hour on ice, the sample was put into dialysis tubes and dialyzed in the cold against 1 L of buffer A (24 hours), three buffer replacements being performed. Cytochrome c oxidase from Paracoccus denitrificans was graciously provided by Dr. Bernd Ludwig, Biology Center of the University of Frankfurt am Main, Germany.
The cytochrome c oxidase activity was determined by establishing the oxygen consumption. For this purpose, a Clarke electrode was used at 25° C. (Yellow Spring Instruments, Yellow Spring, Ohio), the measurement being performed under continuous stirring. Solubilized cytochrome c oxidase was suspended in 40 mM K^+-phosphate, 0.005 mM EDTA (pH 7.0), 0.7% Tween 20 containing 0.02 mM cytochrome c as a substrate and a mixture of ascorbate und tetramethyl-p-phenylenediamine (TMPD) (10 mM/1 mM). Reconstituted cytochrome c oxidase was measured with ascorbate/TPMD (10 mM/0.2 mM) in a medium containing 100 mM KCl, 0.01 M HEPES-KOH (pH 7.0) und 0.1 mM EDTA.
The radiation with light was performed using a 70 watt lamp which was attached at 10 cm height over the electrode. The oxidation of lipids using peroxynitrite was achieved by suspending 20 mg DPG in 1 mL of 40 mM K^+-phosphate and 0.05 mM EDTA (pH 7.0) and mixing with 0.94 μmol peroxynitrite (original solution 94 mM in 0.1 N NaOH). Malondialdehyde was measured as an index for the lipid oxidation as already described (Klein, S. D., Walt, H., and Richter, C. (1997) Arch. Biochem. Biophys., 348, 313-319).
The activity of the COX could be easily measured by registering the oxygen consumption of the enzyme in the presence of ascorbate and TPMD (tetramethyl-p-phenylene diamine) as an electron source to reduce cytochrome c.
The experiment was performed in darkness (line a) and/or under the incidence of light (line b). 5 μg of catalase from beef liver with 500 μM of H2O2 was added at the positions marked with arrows. […] Two separate measurements are illustrated (lines a and b). At the positions marked by dashed arrows, 300 μg/mL of cardiolipin was added at t=210 seconds and t=950 seconds. At the position of the solid arrow, 5 μg of catalase from beef liver with 500 μM of H2O2 was added.
The oxygen consumption of solubilized COX (2 μg/mL) was measured in the presence of various substances using a Clarke electrode (see materials and methods). […] TPP^+=tetraphenyl phosphonium ion; MPP^+=methylphenyl pyridinium ion.
The oxygen consumption of solubilized COX (2 μg/mL) was measured in the presence of various substances using a Clarke electrode (see materials and methods).

Cyt.c = Cyt.c (Homo sapiens, UniProt P99999); test: Binding of [3H]-A2E to cytochrome c by co-precipitation; conditions: 20 min
Experimental: as §1, §2

COX from rat hearts = molecular target: T3, COX from rat hearts (Rattus norvegicus, UniProt P00406+P05503+P05505); test: Reconstituted COX from rat hearts, sensitivity to A2E; type: biochemical
T3 construct: The heart mitochondria were purified using a similar method, a polytron homogenizer being used; from tissue; host or cells: rat heart mitochondria
Experimental: (§3) Cytochrome c oxidase was purified from rat liver mitochondria of female Wistar rats as described by Frei et al. (Frei, B., Winterhalter, K. H., and Richter, C. (1985) J. Biol. Chem. 260, 7394-7401). The homogenization medium contained 210 mM mannitol, 70 mM saccharose, 10 mM tris-HCl (pH 7.4), 0.1 mM EDTA, and 0.5 mg/mL BSA. The heart mitochondria were purified using a similar method, a polytron homogenizer being used. The cytochrome c oxidase was purified according to the method described by Adez and Cascarano (Adez, I. Z., and Cascarano, J. (1977) J. Bioenerg. Biomemb. 9, 237-253). Cytochrome c oxidase solubilized using Triton X-100 was reconstituted in variously composed phospholipid vesicles of differing dimensions, a modified cholate dialysis method being used. (Niggli, V., Siegel, E., and Carafoli, E. (1982) J. Biol. Chem. 257, 2350-2356). […]
(§4) The cytochrome c oxidase activity was determined by establishing the oxygen consumption. […] Reconstituted cytochrome c oxidase was measured with ascorbate/TPMD (10 mM/0.2 mM) in a medium containing 100 mM KCl, 0.01 M HEPES-KOH (pH 7.0) und 0.1 mM EDTA.
(§5) A protective effect by negatively charged phospholipids was also observed when increasing quantities of cardiolipin (see above, a negatively charged phospholipid) were added to vesicles containing PC/PE (see Table III). […]

Myoglobin = molecular target: T4, Myoglobin (Homo sapiens, UniProt P02144); test: Binding of [3H]-A2E to myoglobin by co-precipitation; conditions: 20 min
T4 sequence (P02144 1-154): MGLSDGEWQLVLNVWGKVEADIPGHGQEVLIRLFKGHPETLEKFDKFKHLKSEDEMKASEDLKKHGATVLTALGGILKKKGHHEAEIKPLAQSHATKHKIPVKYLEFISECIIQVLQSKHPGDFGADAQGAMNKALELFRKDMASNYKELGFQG
Experimental: as §1, §2

[2] = molecular target: T5, COX from Paracoccus denitrificans (Paracoccus denitrificans, UniProt P08306+P98002); test: Reconstituted COX from Paracoccus denitrificans, sensitivity to A2E; type: biochemical
T5 construct: host or cells: gift from Dr. Bernd Ludwig, University of Frankfurt am Main
Experimental: as §3, §4, §5

BSA = BSA (Bos taurus, UniProt P02769); test: Binding of [3H]-A2E to BSA by co-precipitation; design: species or system bovine; conditions: 20 min
Experimental: as §1, §2

[3] = molecular target: T2, solubilized cytochrome c oxidase (COX); test: Activity of solubilized cytochrome c oxidase by oxygen consumption (Clarke electrode); type: biochemical; conditions: read-out: IC50 (A2E concentration for 50% inhibition of COX)
[4] = molecular target: T6, reconstituted cytochrome c oxidase (COX) (Rattus norvegicus, UniProt P00406+P05503+P05505); test: Activity of cytochrome c oxidase reconstituted in phospholipid vesicles, oxygen consumption in presence of A2E; type: biochemical; conditions: phospholipid used in the vesicles
T6 construct: Cytochrome c oxidase was purified from rat liver mitochondria of female Wistar rats; from tissue; host or cells: rat liver mitochondria (female Wistar rats)
T6 sequence (P00406 whole entry, other chains not shown): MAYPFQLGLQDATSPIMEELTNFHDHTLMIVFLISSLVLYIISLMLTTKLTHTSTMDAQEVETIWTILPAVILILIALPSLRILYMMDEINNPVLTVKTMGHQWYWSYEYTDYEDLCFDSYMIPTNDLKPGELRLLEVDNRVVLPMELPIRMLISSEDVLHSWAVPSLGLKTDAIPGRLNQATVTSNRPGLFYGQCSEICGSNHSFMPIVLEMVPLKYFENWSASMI
T6 sequence (P05505 whole entry, other chains not shown): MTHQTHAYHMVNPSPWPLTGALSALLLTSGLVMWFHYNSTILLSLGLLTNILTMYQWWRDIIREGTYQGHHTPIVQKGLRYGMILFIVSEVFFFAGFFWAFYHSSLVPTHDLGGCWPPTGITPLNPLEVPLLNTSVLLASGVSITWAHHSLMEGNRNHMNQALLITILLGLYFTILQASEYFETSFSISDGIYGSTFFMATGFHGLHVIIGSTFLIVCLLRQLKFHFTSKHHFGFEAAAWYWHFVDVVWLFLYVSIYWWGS
Experimental: Cytochrome c oxidase was purified from rat liver mitochondria of female Wistar rats as described by Frei et al. (Frei, B., Winterhalter, K. H., and Richter, C. (1985) J. Biol. Chem. 260, 7394-7401). The homogenization medium contained 210 mM mannitol, 70 mM saccharose, 10 mM tris-HCl (pH 7.4), 0.1 mM EDTA, and 0.5 mg/mL BSA. […] The cytochrome c oxidase was purified according to the method described by Adez and Cascarano (Adez, I. Z., and Cascarano, J. (1977) J. Bioenerg. Biomemb. 9, 237-253). Cytochrome c oxidase solubilized using Triton X-100 was reconstituted in variously composed phospholipid vesicles of differing dimensions, a modified cholate dialysis method being used. […] 1 mL of a phospholipid suspension (10 mg/mL in 50 mM KCl, 10 mM HEPES-KOH (pH 7.0), 0.1 mM K^+-EDTA; buffer A) was solubilized in 0.2 mL of a 400 mM cholate solution. The purified cytochrome c oxidase (40 μg) was added to 0.4 mL of the cholate-phospholipid mixture. After an hour on ice, the sample was put into dialysis tubes and dialyzed in the cold against 1 L of buffer A (24 hours), three buffer replacements being performed.
The cytochrome c oxidase activity was determined by establishing the oxygen consumption. […] Reconstituted cytochrome c oxidase was measured with ascorbate/TPMD (10 mM/0.2 mM) in a medium containing 100 mM KCl, 0.01 M HEPES-KOH (pH 7.0) und 0.1 mM EDTA. […]

T2 sequence (P00406 whole entry, other chains not shown): as the sequence (P00406 whole entry, other chains not shown) above
T2 sequence (P05505 whole entry, other chains not shown): as the sequence (P05505 whole entry, other chains not shown) above
T1 sequence (P00406 whole entry, other chains not shown): as the sequence (P00406 whole entry, other chains not shown) above
T1 sequence (P05505 whole entry, other chains not shown): as the sequence (P05505 whole entry, other chains not shown) above
Sequence of BSA (P02769 25-607): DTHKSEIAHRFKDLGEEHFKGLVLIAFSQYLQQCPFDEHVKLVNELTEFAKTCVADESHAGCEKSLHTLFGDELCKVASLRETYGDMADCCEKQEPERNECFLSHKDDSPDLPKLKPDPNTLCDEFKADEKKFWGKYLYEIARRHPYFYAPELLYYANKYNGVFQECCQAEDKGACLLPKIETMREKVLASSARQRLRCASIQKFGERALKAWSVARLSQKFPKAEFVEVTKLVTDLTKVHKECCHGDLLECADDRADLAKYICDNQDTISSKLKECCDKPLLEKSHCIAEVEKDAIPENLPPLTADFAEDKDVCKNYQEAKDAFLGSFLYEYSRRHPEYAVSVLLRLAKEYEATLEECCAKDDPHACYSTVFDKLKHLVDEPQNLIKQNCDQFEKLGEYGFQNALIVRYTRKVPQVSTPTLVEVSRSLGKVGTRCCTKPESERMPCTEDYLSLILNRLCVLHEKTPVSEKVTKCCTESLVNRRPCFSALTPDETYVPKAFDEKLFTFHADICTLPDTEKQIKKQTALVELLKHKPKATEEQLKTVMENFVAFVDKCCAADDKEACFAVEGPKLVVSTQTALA
Sequence of Cyt.c (P99999 whole entry): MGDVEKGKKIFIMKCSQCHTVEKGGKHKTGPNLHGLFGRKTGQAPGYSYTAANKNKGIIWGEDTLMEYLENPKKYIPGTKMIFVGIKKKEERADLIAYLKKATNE
T3 sequence (P00406 whole entry, other chains not shown): as the sequence (P00406 whole entry, other chains not shown) above
T3 sequence (P05505 whole entry, other chains not shown): as the sequence (P05505 whole entry, other chains not shown) above
T5 sequence (P08306 30-281): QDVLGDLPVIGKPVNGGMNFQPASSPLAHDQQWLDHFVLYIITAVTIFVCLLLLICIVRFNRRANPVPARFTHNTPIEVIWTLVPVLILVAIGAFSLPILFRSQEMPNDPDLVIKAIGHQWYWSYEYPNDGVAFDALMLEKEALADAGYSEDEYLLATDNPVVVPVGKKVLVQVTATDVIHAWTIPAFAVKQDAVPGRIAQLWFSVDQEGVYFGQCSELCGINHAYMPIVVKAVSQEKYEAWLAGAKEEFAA
T5 sequence (P98002 whole entry): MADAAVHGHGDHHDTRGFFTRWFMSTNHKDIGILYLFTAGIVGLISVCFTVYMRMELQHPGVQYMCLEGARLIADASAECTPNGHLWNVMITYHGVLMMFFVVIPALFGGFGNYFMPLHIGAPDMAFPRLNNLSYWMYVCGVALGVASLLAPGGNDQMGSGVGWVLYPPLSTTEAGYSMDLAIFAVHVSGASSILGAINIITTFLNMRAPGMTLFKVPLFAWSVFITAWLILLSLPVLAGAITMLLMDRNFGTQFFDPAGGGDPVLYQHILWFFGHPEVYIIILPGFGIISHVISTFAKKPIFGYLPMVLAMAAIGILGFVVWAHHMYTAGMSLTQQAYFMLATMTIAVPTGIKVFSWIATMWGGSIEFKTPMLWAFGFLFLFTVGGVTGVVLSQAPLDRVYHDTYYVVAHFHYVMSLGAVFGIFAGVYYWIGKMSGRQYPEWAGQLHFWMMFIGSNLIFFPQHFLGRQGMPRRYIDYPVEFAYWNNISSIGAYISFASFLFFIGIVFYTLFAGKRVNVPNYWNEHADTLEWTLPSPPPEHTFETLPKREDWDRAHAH

1,3 diphosphatidylglycerol [CL]
Prevention of A2E binding to COX (COX; co-precipitation): almost completely prevented
Cells survived (MCF-7 cells; 60 μM A2E + CL 500 μg/mL, 5 days): 95%
Protection from A2E-induced apoptosis (MCF-7 cells; CL 500 μg/mL): significant protective effect
Protective effect on COX against A2E after (pre)treatment with peroxynitrite ([1]; CL oxidised with peroxynitrite): loss of the protective properties

Cc1cc(N)c2ccccc2[n+]1CCCCCCCCCC[n+]1c(C)cc(N)c2ccccc21 [Dequalinium]
IC50 ([1]; solubilized COX 2 μg/mL): 40 µM

CC1=C(/C=C/C(C)=C/C=C/C(C)=C/c2cc(/C=C/C=C(C)/C=C/C3=C(C)CCCC3(C)C)cc[n+]2CCO)C(C)(C)CCC1 [A2E, N-retinyl-N-retinylidene ethanolamine]
Molecules A2E/molecules protein (Cyt.c; darkness): 0.0 (n = 3)
Molecules A2E/molecules protein (Cyt.c; exposure to light): 0.0 (n = 3)
Sensitivity of enzyme to A2E (COX from rat hearts): sensitive
Molecules A2E/molecules protein (COX; COX + CL + Cyt.c, darkness): 0.7 +/− 0.9 (n = 3)
Molecules A2E/molecules protein (COX; COX + CL + Cyt.c, exposure to light): 3.8 +/− 2.3 (n = 4)
Molecules A2E/molecules protein (COX; COX + CL, exposure to light): 2.7 +/− 3.6 (n = 4)
Cells died off (MCF-7 cells; 60 μM A2E, 5 days): 99%
Induction of apoptosis (MCF-7 cells; A2E 10, 30, 60 μM, 3 and/or 5 days): led to the cells becoming apoptotic
Molecules A2E/molecules protein (Myoglobin; darkness): 0.0 (n = 2)
Molecules A2E/molecules protein (Myoglobin; exposure to light): 0.0 (n = 2)
Sensitivity of enzyme to A2E [2]: sensitive
% COX inhibition ([1]; solubilized COX 2 μg/mL, A2E always 20 μM, CL 200 μg/mL, RR 10 μM, La3+ 200 μM where added): 60%
IC50 ([1]; solubilized COX 2 μg/mL): 7 µM
Molecules A2E/molecules protein (BSA; darkness): 1.6 +/− 0.5 (n = 3)
Molecules A2E/molecules protein (BSA; exposure to light): 1.6 +/− 0.5 (n = 3)
IC50 ([3]; solubilized COX 1 μg/mL): 3 µM
IC50 ([3]; solubilized COX 4 μg/mL): 20 µM

c1ccc([P+](c2ccccc2)(c2ccccc2)c2ccccc2)cc1 [TPP^+, tetraphenyl phosphonium ion]
IC50 (μM) in relation to COX ([1]; solubilized COX 2 μg/mL): No inhibition

CCCCCCCCCCCCCCCCCCN [Stearylamine]
IC50 (μM) in relation to COX ([1]; solubilized COX 2 μg/mL): No inhibition

C[n+]1ccc(-c2ccccc2)cc1 [MPP^+, methylphenyl pyridinium ion]
IC50 (μM) in relation to COX ([1]; solubilized COX 2 μg/mL): No inhibition

CC1=C(/C=C/C(C)=C/C=C/C(C)=C/C=O)C(C)(C)CCC1 [Retinal]
IC50 ([1]; solubilized COX 2 μg/mL): 200 µM

phosphatidylinositol [PI]
Protection of reconstituted COX from inhibition by A2E [4]: pronounced protective effect
